According to publication PMC8880671, “Facial Synthesis and Bioevaluation of Well-Defined OEGylated Betulinic Acid-Cyclodextrin Conjugates for Inhibition of Influenza Infection” (Molecules, 2022):
Read-outs that look alike come from different tables or passages of the source.

Key:
influenza virus [1] = tested on: influenza virus; parameters: method as in doi:10.1134/S1068162018050059; settings: read-out: EC50, anti-influenza activity; cited from earlier work
A/PR/8/34 virus = tested on: A/PR/8/34 virus; parameters: method as in PMID 26157551; settings: 10 μM; cited from earlier work
influenza virus [2] = tested on: influenza virus; parameters: method as in PMID 28792469; settings: 50 µg/mL; cited from earlier work
MDCK cells [3] = settings: read-out: CC50 (cytotoxicity concentration for 50% cell death); cited from earlier work
[4] = Cytotoxicity test, CellTiter-Glo luminescent cell viability assay; settings: dog, MDCK cells
in vitro = settings: dog
[5] = tested on: influenza A/WSN/33 (H1N1) virus; experiment: microbe, parasite or virus in culture; assay type: cell-based; settings: for IC50: read-out: IC50 (half maximal inhibitory concentration); for inhibition rate against influenza virus A/WSN/33 (H1N1): CPE-based screening at 20 μM
[6] = tested on: avian influenza KBNP-0028 (H9N2) virus; settings: read-out: EC50 against avian influenza KBNP-0028 (H9N2) virus; cited from earlier work
MDCK cells [7] = experiment: Cytotoxicity test, CellTiter-Glo luminescent cell viability assay; settings: for CC50: read-out: CC50 (cytotoxicity concentration for 50% cell death), MDCK cells; for MDCK cell viability: 100 µM, 36 h, CellTiter-Glo

Molecule: C=C(C)[C@@H]1CC[C@]2(C(=O)O)CC[C@]3(C)[C@H](CC[C@@H]4[C@@]5(C)CC[C@H](O)C(C)(C)[C@@H]5CC[C@]43C)[C@@H]12 [BA, Betulinic acid]
- EC50 (influenza virus [1]): > 219 µM
- anti-influenza activity against A/PR/8/34 virus (A/PR/8/34 virus): ~ 30%
- anti-influenza activity (inhibition) (influenza virus [2]): 27.6%
- CC50 (MDCK cells [3]): 31.9 µM
- viability at 36 h, 100 µM [4]: 8.5%

Molecule: CC(=O)N[C@H]1[C@H]([C@H](O)[C@H](O)CO)OC(C(=O)O)=C[C@@H]1N=C(N)N [Zanamivir, reference compound]
- CC50 (in vitro): > 100 µM
- SI (Selectivity Index, ratio of CC50 to IC50) [5]: >79.4
- IC50 ([5]; Influenza A virus, MDCK, 36 h): 1.26 ± 0.36 µM

Molecule: C=C(C)[C@@H]1CC[C@]2(C=O)CC[C@]3(C)[C@H](CC[C@@H]4[C@@]5(C)CC[C@H](O)C(C)(C)[C@@H]5CC[C@]43C)[C@@H]12 [Betulinic aldehyde]
- EC50 [6]: 28.4 µM

Molecule: Hexakis 6-Deoxy-6-[4-N-[(2-(2-(2-Propyn-1-yloxy)ethoxy)ethyl)-3β-hydroxy-lup-20(29)-en-28-oyl]-aminomethyl-1H-1,2,3-triazol-1-yl]-α-CD [Compound 75]
- IC50 ([5]; A/WSN/33 virus in MDCK cells, MOI 0.2, 36 h): 15.6 ± 3.32 µM
- inhibition rate against influenza virus A/WSN/33 (H1N1) [5]: over 50%

Molecule: Hexakis 6-Deoxy-6-[4-N-(3β-Hydroxy-lup-20(29)-en-28-oyl)-aminomethyl-1H-1,2,3-triazol-1-yl]-α-CD [Compound 69]
- IC50 [5]: 9.82 ± 1.74 µM
- CC50 (MDCK cells [7]): > 100 µM

Molecule: Hexakis 6-Deoxy-6-[4-N-[(2-(2-(2-Propyn-1-yloxy)ethoxy)ethyl)-3β-hydroxy-lup-20(29)-en-28-oyl]-aminomethyl-1H-1,2,3-triazol-1-yl]-2,3-di-O-acetyl-α-CD [Compound 57]
- inhibition rate against influenza virus A/WSN/33 (H1N1) [5]: over 50%

Molecule: Octakis 6-Deoxy-6-[4-N-[(3,6,9,12-Tetraoxapentadec-14-yn-1-yl)-3β-hydroxy-lup-20(29)-en-28-oyl]-aminomethyl-1H-1,2,3-triazol-1-yl]-γ-CD [Compound 80]
- MDCK cell viability (MDCK cells [7]): 64%

Molecule: Hexakis 6-Deoxy-6-[4-N-[(3,6,9,12-Tetraoxapentadec-14-yn-1-yl)-3β-hydroxy-lup-20(29)-en-28-oyl]-aminomethyl-1H-1,2,3-triazol-1-yl]-α-CD [Compound 78]
- inhibition rate against influenza virus A/WSN/33 (H1N1) [5]: over 50%

Molecule: Heptakis 6-Deoxy-6-[4-N-[(2-(2-(2-Propyn-1-yloxy)ethoxy)ethyl)-3β-hydroxy-lup-20(29)-en-28-Oyl]-aminomethyl-1H-1,2,3-triazol-1-Yl]-2,3-di-O-acetyl-β-CD [Compound 58]
- MDCK cell viability (MDCK cells [7]): 68%

Molecule: Heptakis 6-Deoxy-6-[4-N-[(3,6,9,12,15,18-Hexaoxaheneicos-20-yn-1-yl)-3β-hydroxy-lup-20(29)-en-28-oyl]-aminomethyl-1H-1,2,3-triazol-1-yl]-β-CD [Compound 82]
- MDCK cell viability (MDCK cells [7]): 67%

Molecule: Octakis 6-Deoxy-6-[4-N-(3β-Hydroxy-lup-20(29)-en-28-oyl)-aminomethyl-1H-1,2,3-triazol-1-yl]-γ-CD [Compound 71]
- IC50 [5]: 7.59 ± 1.57 µM
- CC50 (MDCK cells [7]): > 100 µM

Molecule: Heptakis 6-Deoxy-6-[4-N-(3β-Hydroxy-lup-20(29)-en-28-oyl)-aminomethyl-1H-1,2,3-triazol-1-yl]-β-CD [Compound 70]
- IC50 [5]: 7.48 ± 1.93 µM
- CC50 (MDCK cells [7]): > 100 µM
